US12485114B2, “Materials and methods useful to induce cancer cell death via methuosis or autophagy or a combination thereof” (The University of Toledo, priority 2017, dated 2025)

Experiments:
Test in all cases: Morphological assessment of vacuolization
Type in all cases: cell-based
HCT-116 (colon cancer) = test system: HCT-116 (colon cancer)
Description: The methuophagy inducing activities of BAPT-27 were also prominent in different colon cancer cell lines with different genetic profiles. […] (FIG. 42). However, the vacuoles formation was not prominent in normal epithelial colon cells (CRL-1459). (FIG. 42).

[1] = test system: BT-20 (triple negative breast cancer)
U-251 (glioblastoma) = test system: U-251 (glioblastoma)

Measured: vacuolization

Cc1[nH]c2ccccc2c1-c1nn2c(-c3ccncc3)nnc2s1 [BAPT-36]
dose dependent vacuolization: HCT-116 (colon cancer) | [1] | U-251 (glioblastoma)
